The source made the active and inactive calls. No cut-off for these calls is given here.
Experiments:
[1] = system: NUGC-3; assay: Growth inhibition of human NUGC3 cells at 10 uM after 48 hrs by SRB assay; values are per cent of control; settings: NUGC-3, 48 h
[2] = system: MDA-MB-231; assay: Growth of human MDA-MB-231 cells at 1 uM after 48 hrs by SRB assay; settings: MDA-MB-231, 48 h
[3] = system: NCI-H23; assay: Growth inhibition of human NCI-H23 cells after 48 hrs by SRB assay; format: functional; settings: NCI-H23, 48 h
[4] = system: MDA-MB-231; assay: Growth of human MDA-MB-231 cells at 10 uM after 48 hrs by SRB assay; settings: MDA-MB-231, 48 h
[5] = system: ACHN; assay: Growth inhibition of human ACHN cells at 3 uM after 48 hrs by SRB assay; values are per cent of control
[6] = system: ACHN; assay: Growth of human ACHN cells at 0.1 uM after 48 hrs by SRB assay
[7] = system: MDA-MB-231; assay: Growth inhibition of human MDA-MB-231 cells after 48 hrs by SRB assay; format: functional; settings: MDA-MB-231, 48 h
[8] = system: NUGC-3; assay: Growth of human NUGC3 cells at 0.3 uM after 48 hrs by SRB assay; settings: NUGC-3, 48 h
[9] = system: NUGC-3; assay: Growth inhibition of human NUGC3 cells at 3 uM after 48 hrs by SRB assay; values are per cent of control; settings: NUGC-3, 48 h
[10] = system: NUGC-3; assay: Growth of human NUGC3 cells at 0.1 uM after 48 hrs by SRB assay; settings: NUGC-3, 48 h
[11] = system: HCT-15; assay: Growth inhibition of human HCT15 cells after 48 hrs by SRB assay; format: functional; settings: HCT-15, 48 h
[12] = system: NCI-H23; assay: Growth of human NCI-H23 cells at 0.3 uM after 48 hrs by SRB assay; settings: NCI-H23, 48 h
[13] = system: HCT-15; assay: Growth of human HCT15 cells at 3 uM after 48 hrs by SRB assay; settings: HCT-15, 48 h
[14] = system: NCI-H23; assay: Growth inhibition of human NCI-H23 cells at 0.1 uM after 48 hrs by SRB assay; values are per cent of control; settings: NCI-H23, 48 h
[15] = system: HCT-15; assay: Growth of human HCT15 cells at 0.3 uM after 48 hrs by SRB assay; settings: HCT-15, 48 h
[16] = system: NCI-H23; assay: Growth inhibition of human NCI-H23 cells at 1 uM after 48 hrs by SRB assay; values are per cent of control; settings: NCI-H23, 48 h
[17] = system: ACHN; assay: Growth inhibition of human ACHN cells at 1 uM after 48 hrs by SRB assay; values are per cent of control
[18] = system: MDA-MB-231; assay: Growth of human MDA-MB-231 cells at 0.1 uM after 48 hrs by SRB assay; settings: MDA-MB-231, 48 h
[19] = system: HCT-15; assay: Growth inhibition of human HCT15 cells at 1 uM after 48 hrs by SRB assay; values are per cent of control; settings: HCT-15, 48 h
[20] = system: NCI-H23; assay: Growth inhibition of human NCI-H23 cells at 3 uM after 48 hrs by SRB assay; values are per cent of control; settings: NCI-H23, 48 h
[21] = system: NUGC-3; assay: Growth inhibition of human NUGC3 cells after 48 hrs by SRB assay; format: functional; settings: NUGC-3, 48 h
[22] = system: MDA-MB-231; assay: Growth of human MDA-MB-231 cells at 3 uM after 48 hrs by SRB assay; values are per cent of control; settings: MDA-MB-231, 48 h
[23] = system: PC-3; assay: Growth inhibition of human PC3 cells at 3 uM after 48 hrs by SRB assay; values are per cent of control; settings: PC-3, 48 h
[24] = system: PC-3; assay: Growth of human PC3 cells at 10 uM after 48 hrs by SRB assay; settings: PC-3, 48 h
[25] = system: PC-3; assay: Growth inhibition of human PC3 cells at 0.3 uM after 48 hrs by SRB assay; values are per cent of control; settings: PC-3, 48 h
[26] = target: Rho-related GTP-binding protein RhoB (Homo sapiens) (UniProt P62745); assay: Transactivation of RhoB (unknown origin) transfected in human HeLa cells at 5 uM measured over 10 secs by dual luciferase reporter gene assay; format: cell-based
[27] = system: PC-3; assay: Growth inhibition of human PC3 cells at 1 uM after 48 hrs by SRB assay; values are per cent of control; settings: PC-3, 48 h
[28] = system: PC-3; assay: Growth inhibition of human PC3 cells after 48 hrs by SRB assay; format: functional; settings: PC-3, 48 h
[29] = system: HCT-15; assay: Growth inhibition of human HCT15 cells at 0.1 uM after 48 hrs by SRB assay; values are per cent of control; settings: HCT-15, 48 h
[30] = system: NUGC-3; assay: Growth of human NUGC3 cells at 1 uM after 48 hrs by SRB assay; settings: NUGC-3, 48 h
[31] = system: ACHN; assay: Growth inhibition of human ACHN cells after 48 hrs by SRB assay; format: functional
[32] = system: HCT-15; assay: Growth inhibition of human HCT15 cells at 10 uM after 48 hrs by SRB assay; values are per cent of control; settings: HCT-15, 48 h
[33] = system: NCI-H23; assay: Growth of human NCI-H23 cells at 10 uM after 48 hrs by SRB assay; settings: NCI-H23, 48 h
[34] = system: PC-3; assay: Growth inhibition of human PC3 cells at 0.1 uM after 48 hrs by SRB assay; values are per cent of control; settings: PC-3, 48 h
[35] = system: ACHN; assay: Growth of human ACHN cells at 10 uM after 48 hrs by SRB assay
[36] = system: MDA-MB-231; assay: Growth inhibition of human MDA-MB-231 cells at 0.3 uM after 48 hrs by SRB assay; values are per cent of control; settings: MDA-MB-231, 48 h
[37] = system: ACHN; assay: Growth of human ACHN cells at 0.3 uM after 48 hrs by SRB assay

Rho-related GTP-binding protein RhoB (Homo sapiens), sequence (P62745 whole entry): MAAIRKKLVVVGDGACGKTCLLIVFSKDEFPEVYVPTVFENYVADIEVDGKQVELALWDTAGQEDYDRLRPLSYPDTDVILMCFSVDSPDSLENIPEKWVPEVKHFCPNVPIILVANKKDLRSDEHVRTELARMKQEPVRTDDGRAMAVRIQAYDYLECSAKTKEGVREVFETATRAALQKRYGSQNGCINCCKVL

Row | Structure (SMILES) | growth, % of control at 10 µM [1] | growth, % of control at 1 µM [2] | GI50 [3] | growth, % of control at 10 µM [4] | growth, % of control at 3 µM [5] | growth, % of control at 0.1 µM [6] | GI50 [7] | growth, % of control at 0.3 µM [8] | growth, % of control at 3 µM [9] | growth, % of control at 0.1 µM [10] | GI50 [11] | growth, % of control at 0.3 µM [12] | growth, % of control at 3 µM [13] | growth, % of control at 0.1 µM [14] | growth, % of control at 0.3 µM [15] | growth, % of control at 1 µM [16] | growth, % of control at 1 µM [17] | growth, % of control at 0.1 µM [18] | growth, % of control at 1 µM [19] | growth, % of control at 3 µM [20] | also measured
1 | CCCCCCCCCCCCCCS(=O)(=O)NCC(C)(C)C[N+](C)(C)C | -8.2% | 77.6% | 310 nM | 31% | 57.1% | 91.3% | 2110 nM | 75.5% | 8.9% | 81.8% | 1700 nM | 76.8% | 48.2% | 88.5% | 94.3% | 31.4% | 79.4% | 94.3% | 89.2% | 1.5% | GI50 [21]: 320 nM; growth, % of control at 3 µM [22]: 55.9%; growth, % of control at 3 µM [23]: 9.8%; growth, % of control at 10 µM [24]: -0.3%; growth, % of control at 0.3 µM [25]: 73.8%; Activity [26]: Active; growth, % of control at 1 µM [27]: 46%; GI50 [28]: 350 nM; growth, % of control at 0.1 µM [29]: 98.1%; growth, % of control at 1 µM [30]: 35.9%; GI50 [31]: 2600 nM; growth, % of control at 10 µM [32]: 19.4%; growth, % of control at 10 µM [33]: -30.5%; growth, % of control at 0.1 µM [34]: 76.1%; growth, % of control at 10 µM [35]: 37.4%; growth, % of control at 0.3 µM [36]: 88.5%; growth, % of control at 0.3 µM [37]: 84.8%
2 | CCCCCCCCCCCCCCCCS(=O)(=O)N(C)CC[N+](C)(C)CC | 4% | 51.9% | 1810 nM | -3.8% | 52.7% | 96.2% | 540 nM | 81.3% | 17.2% | 88% | 1260 nM | 78.3% | 35.2% | 80.8% | 98.4% | 84% | 77.8% | 75.8% | 69.7% | 61.6% | GI50 [21]: 360 nM; growth, % of control at 3 µM [22]: 36.5%; growth, % of control at 3 µM [23]: 14.2%; growth, % of control at 10 µM [24]: -18.7%; growth, % of control at 0.3 µM [25]: 87.3%; Activity [26]: Active; growth, % of control at 1 µM [27]: 54.1%; GI50 [28]: 570 nM; growth, % of control at 0.1 µM [29]: 101%; growth, % of control at 1 µM [30]: 30%; GI50 [31]: 1750 nM; growth, % of control at 10 µM [32]: 26.7%; growth, % of control at 10 µM [33]: 13.5%; growth, % of control at 0.1 µM [34]: 91.4%; growth, % of control at 10 µM [35]: 21.5%; growth, % of control at 0.3 µM [36]: 77.8%; growth, % of control at 0.3 µM [37]: 93.9%
3 | CCCCCCCCCCCCCCCCS(=O)(=O)NCCC[N+](C)(C)CC | -34.3% | 75.5% | 910 nM | 9.2% | 48.4% | 87.7% | 910 nM | 73.5% | 7.5% | 74.4% | 1200 nM | 82.9% | 35.3% | 81.3% | 91.7% | 73.4% | 76.6% | 72.6% | 78% | 32.2% | GI50 [21]: 320 nM; growth, % of control at 3 µM [22]: 39.3%; growth, % of control at 3 µM [23]: -11.8%; growth, % of control at 10 µM [24]: -32.4%; growth, % of control at 0.3 µM [25]: 79.7%; Activity [26]: Active; growth, % of control at 1 µM [27]: 56.3%; GI50 [28]: 560 nM; growth, % of control at 0.1 µM [29]: 90%; growth, % of control at 1 µM [30]: 41.8%; GI50 [31]: 1290 nM; growth, % of control at 10 µM [32]: 16.3%; growth, % of control at 10 µM [33]: -21.5%; growth, % of control at 0.1 µM [34]: 84.1%; growth, % of control at 10 µM [35]: -6.7%; growth, % of control at 0.3 µM [36]: 75.7%; growth, % of control at 0.3 µM [37]: 90.6%

— ChEMBL document CHEMBL2434921, “New synthetic aliphatic sulfonamido-quaternary ammonium salts as anticancer chemotherapeutic agents” (2013)
